We go through 8 compounds from US20080194632A1, “Novel Piperidine Derivatives as Chemokine Receptor Modulators Useful for the Treatment of Respiratory Diseases” (ASTRAZENECA AB, priority 2005, published 2008).

The assay has as its target T1, human CCR1 (Homo sapiens, UniProt P32246).
T1 construct: expressed in transfected cells; membranes prepared
T1 sequence (P32246 1-355): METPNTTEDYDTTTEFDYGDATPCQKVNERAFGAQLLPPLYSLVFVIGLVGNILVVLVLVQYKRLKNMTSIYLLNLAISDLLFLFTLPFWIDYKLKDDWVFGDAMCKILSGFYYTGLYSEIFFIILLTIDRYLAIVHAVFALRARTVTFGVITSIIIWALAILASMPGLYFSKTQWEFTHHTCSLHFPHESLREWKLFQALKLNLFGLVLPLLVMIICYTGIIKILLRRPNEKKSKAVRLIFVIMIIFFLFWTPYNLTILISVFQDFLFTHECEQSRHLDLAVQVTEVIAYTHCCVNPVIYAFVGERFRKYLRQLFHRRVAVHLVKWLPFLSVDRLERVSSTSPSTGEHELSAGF
The assay is described as follows: Human CCR1 binding assay ([125I] MIP-1α displacement). As to conditions: displacement of 33 pM [125I] MIP-1α from HEK-CCR1 membranes, pH 7.4, 1.5 hrs at room temperature. As to the method: HEK293 cells, from ECACC, stably expressing recombinant human CCR1 (HEK-CCR1) were used to prepare cell membranes containing CCR1. The membranes were stored at −70° C. The concentration of membranes of each batch was adjusted to 10% specific binding of 33 pM [^125I] MIP-1α.
100 μL of HEK-CCR1 membranes diluted in assay buffer pH 7.4 (137 mM NaCl (Merck, Cat No 1.06404), 5.7 mM Glucose (Sigma, Cat No G5400), 2.7 mM KCl (Sigma, Cat No P-9333), 0.36 mM NaH2PO4×H2O (Merck, Cat No 1.06346), 10 mM HEPES (Sigma, Cat No H3375), 0.1% (w/v) Gelatine (Sigma, Cat No G2625)) with the addition of 17500 units/L Bacitracin (Sigma, Cat No B 1025) were added to each well of the 96 well filter plate (0.45 μm opaque Millipore cat no MHVB N4550). 12 μL of compound in assay buffer, containing 10% DMSO, was added to give final compound concentrations of 1×10^−5.5-1×10^−9.5 M. 12 μl cold human recombinant MIP-1α (270-LD-050, R&D Systems, Oxford, UK), 10 nM final concentration in assay buffer supplemented with 10% DMSO, was included in certain wells (without compound) as non-specific binding control (NSB). 12 μl assay buffer with 10% DMSO was added to certain wells (without compound) to detect maximal binding (B0).
12 μL [^125I] MIP-1α, diluted in assay buffer to a final concentration in the wells of 33 pM, was added to all wells. The plates with lid were then incubated for 1.5 hrs at room temperature. After incubation the wells were emptied by vacuum filtration (MultiScreen Resist Vacuum Manifold system, Millipore) and washed once with 200 μl assay buffer. After the wash, all wells received an addition of 50 μL of scintillation fluid (OptiPhase “Supermix”, Wallac Oy, Turko, Finland). Bound [^125I] MIP-1α was measured using a Wallac Trilux 1450 MicroBeta counter. Window settings: Low 5-High 1020, 1-minute counting/well.
The following equation was used to calculate percent displacement.
Percent displacement=1−((cpm test−cpm NSB)/(cpm B0−cpm NSB)) where:
cpm test=average cpm in duplicate wells with membranes and compound and [^125I] MIP-1α cpm; NSB=average cpm in the wells with membranes and MIP-1α and [^125I] MIP-1α (non-specific binding) cpm; B0=average cpm in wells with membranes and assay buffer and [^125I] MIP-1α (maximum binding).
The molar concentration of compound producing 50% displacement (IC50) was derived using the Excel-based program XLfit (version 2.0.9) to fit data to a 4-parameter logistics function.
By IC50 is commonly meant the concentration that inhibits the measured activity by half. A higher IC50 goes with weaker potency. Take `CCC(=O)Nc1ccc(O)cc1OC[C@@](C)(O)CNC1CCN(Cc2ccc(Cl)cc2)CC1` [Comparison 1]: the IC50 turned out to be 7 nM.
On to `CC(=O)Nc1ccc(O)cc1OC[C@@](C)(O)CNC1CCN(Cc2ccc(Cl)cc2)CC1` [Comparison 2], for which the IC50 turned out to be 3.9 nM.
Consider `CC(=O)Nc1ccc(O)cc1OC[C@@H](O)CNC1CCN(Cc2ccc(Cl)cc2)CC1` [Comparison 8], for which the IC50 turned out to be 4.5 nM.
Then `CCC(=O)Nc1ccc(O)cc1OC[C@@H](O)CNC1CCN(Cc2ccc(Cl)cc2)CC1` [Comparison 9], with 13.6 nM; and `CCC(=O)Nc1cc(Cl)c(O)cc1OC[C@@](C)(O)CNC1CCN(Cc2ccc(Cl)cc2)CC1` [Example 1, N-{5-Chloro-2-[((2S)-3-{[1-(4-chlorobenzyl)piperidin-4-yl]amino}-2-hydroxy-2-methylpropyl)oxy]-4-hydroxyphenyl}propaneamide di-trifluoroacetate], with 0.4 nM; and `CC(=O)Nc1cc(Cl)c(O)cc1OC[C@@](C)(O)CNC1CCN(Cc2ccc(Cl)cc2)CC1` [Example 2, N-{5-Chloro-2-[((2S)-3-{[1-(4-chlorobenzyl)piperidin-4-yl]amino}-2-hydroxy-2-methylpropyl)oxy]-4-hydroxyphenyl}acetamide di-trifluoroacetate], with 0.7 nM.
Compound `CC(=O)Nc1cc(Cl)c(O)cc1OC[C@@H](O)CNC1CCN(Cc2ccc(Cl)cc2)CC1` [Example 8, N-{5-Chloro-2-[((2S)-3-{[1-(4-chlorobenzyl)piperidin-4-yl]amino}-2-hydroxypropyl)oxy]-4-hydroxyphenyl}acetamide di-trifluoroacetate] yielded an IC50 of 1.6 nM.
Then `CCC(=O)Nc1cc(Cl)c(O)cc1OC[C@@H](O)CNC1CCN(Cc2ccc(Cl)cc2)CC1` [Example 9, N-{5-Chloro-2-[((2S)-3-{[1-(4-chlorobenzyl)piperidin-4-yl]amino}-2-hydroxylpropyl)oxy]-4-hydroxyphenyl}propaneamide di-trifluoroacetate], with 2.7 nM.
